Data as given in ChEMBL document CHEMBL5465560, “Selectivity Literature for EUbOPEN Chemogenomic Library” (2024).

Assays:
[1] = molecular target: Mitogen-activated protein kinase 1 (Homo sapiens, UniProt P28482); assay: Selectivity interaction (Kinase panel (DSF assay)) EUB0001559a MAPK1
[2] = molecular target: T1, Mitogen-activated protein kinase 13 (Homo sapiens) (UniProt O15264); assay: Selectivity interaction (Kinase panel (DSF assay)) EUB0001559a MAPK13
T1 sequence (whole entry): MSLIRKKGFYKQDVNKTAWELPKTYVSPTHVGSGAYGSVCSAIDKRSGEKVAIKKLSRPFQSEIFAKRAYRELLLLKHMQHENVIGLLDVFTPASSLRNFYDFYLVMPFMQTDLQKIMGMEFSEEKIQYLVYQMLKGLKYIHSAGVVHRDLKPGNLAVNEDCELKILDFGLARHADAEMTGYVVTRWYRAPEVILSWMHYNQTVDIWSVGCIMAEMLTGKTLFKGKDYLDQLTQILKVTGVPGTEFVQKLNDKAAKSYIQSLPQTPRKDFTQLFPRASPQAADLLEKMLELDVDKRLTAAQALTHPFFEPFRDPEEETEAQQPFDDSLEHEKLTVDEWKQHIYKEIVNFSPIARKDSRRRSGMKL

[3] = molecular target: Tyrosine-protein kinase BTK (Homo sapiens, UniProt Q06187); assay: Selectivity interaction (Kinase panel (literature)) EUB0001199aCl BTK; details: at 1 µM
[4] = tested on: Epidermal growth factor receptor (Homo sapiens), P00533 [UNDEFINED MUTATION]; assay: Selectivity interaction (KinomeScan (DiscoverX)) EUB0000655a EGFR; details: at 10 µM
[5] = molecular target: T2, cGMP-dependent protein kinase 2 (Homo sapiens) (UniProt Q13237); assay: Selectivity interaction (KinomeScan (DiscoverX)) EUB0001079a PRKG2; details: at 1 µM
T2 sequence (whole entry): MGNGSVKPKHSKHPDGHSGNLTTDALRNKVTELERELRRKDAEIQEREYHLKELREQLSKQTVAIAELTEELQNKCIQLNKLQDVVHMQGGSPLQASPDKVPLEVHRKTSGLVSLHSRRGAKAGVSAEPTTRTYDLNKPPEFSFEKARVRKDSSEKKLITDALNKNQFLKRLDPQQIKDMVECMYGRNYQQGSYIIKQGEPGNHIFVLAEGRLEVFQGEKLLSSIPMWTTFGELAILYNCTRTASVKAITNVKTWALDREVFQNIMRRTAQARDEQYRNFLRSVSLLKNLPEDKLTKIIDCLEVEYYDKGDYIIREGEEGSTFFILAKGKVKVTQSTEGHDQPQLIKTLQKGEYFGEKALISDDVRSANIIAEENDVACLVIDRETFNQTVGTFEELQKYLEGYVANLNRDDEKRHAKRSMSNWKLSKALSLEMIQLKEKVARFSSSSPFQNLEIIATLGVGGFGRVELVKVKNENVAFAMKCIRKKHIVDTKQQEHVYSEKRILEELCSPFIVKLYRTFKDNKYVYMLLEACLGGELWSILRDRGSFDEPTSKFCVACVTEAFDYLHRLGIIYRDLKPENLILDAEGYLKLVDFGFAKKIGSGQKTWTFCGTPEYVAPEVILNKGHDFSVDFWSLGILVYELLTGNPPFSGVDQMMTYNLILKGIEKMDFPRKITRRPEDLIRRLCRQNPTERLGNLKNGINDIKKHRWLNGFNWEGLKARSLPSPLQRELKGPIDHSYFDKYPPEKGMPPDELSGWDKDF

[6] = molecular target: Proto-oncogene tyrosine-protein kinase Src (Homo sapiens, UniProt P12931); assay: Selectivity interaction (KinomeScan (DiscoverX)) EUB0000618a SRC; details: at 10 µM
[7] = tested on: Epidermal growth factor receptor (Homo sapiens), P00533 [UNDEFINED MUTATION]; assay: Selectivity interaction (KinomeScan (DiscoverX)) EUB0001619a EGFR; details: at 1 µM
[8] = molecular target: STE20/SPS1-related proline-alanine-rich protein kinase (Homo sapiens) (UniProt Q9UEW8); assay: Selectivity interaction (KinomeScan (DiscoverX)) EUB0000045b STK39
[9] = molecular target: T3, Cyclin-dependent kinase 2 (Homo sapiens, UniProt P24941); assay: Selectivity interaction (Kinase panel (KiNativ target engagement assay in Jurkat cells)) EUB0001635a CDK2; assay type: cell-based; details: at 1 µM
[10] = molecular target: Cyclin-dependent kinase 7 (Homo sapiens, UniProt P50613); details: at 10 µM
[11] = molecular target: T3, Cyclin-dependent kinase 2; assay: Selectivity interaction (ActivX KiNativ screen (kinase selectivity in THP-1 cell lysates)) EUB0000639a CDK2; assay type: subcellular; details: lysate, at 0.04 µM
[12] = molecular target: T4, Serine/threonine-protein kinase Sgk2 (Homo sapiens) (UniProt Q9HBY8); assay: Selectivity interaction (KinomeScan (DiscoverX)) EUB0000229b SGK2; details: at 10 µM
T4 sequence (whole entry): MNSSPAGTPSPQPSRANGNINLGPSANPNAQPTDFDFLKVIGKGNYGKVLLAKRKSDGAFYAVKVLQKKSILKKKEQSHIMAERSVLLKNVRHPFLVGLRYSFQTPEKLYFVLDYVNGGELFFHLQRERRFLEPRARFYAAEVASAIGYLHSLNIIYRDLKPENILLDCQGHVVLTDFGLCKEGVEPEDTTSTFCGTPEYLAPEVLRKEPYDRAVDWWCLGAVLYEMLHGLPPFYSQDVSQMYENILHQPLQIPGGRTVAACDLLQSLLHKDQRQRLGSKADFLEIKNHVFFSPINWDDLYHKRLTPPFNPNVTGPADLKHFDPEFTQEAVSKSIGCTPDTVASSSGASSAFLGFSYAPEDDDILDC

[13] = molecular target: Serine/threonine-protein kinase PAK 2 (Homo sapiens) (UniProt Q13177); assay: Selectivity interaction (ProQinase) EUB0000171b PAK2
[14] = molecular target: T5, 5-hydroxytryptamine receptor 1A (Homo sapiens) (UniProt P08908); assay: Selectivity interaction (Safety Panel 44tm (Eurofins)) EUB0000162b HTR1A; details: at 10 µM
T5 sequence (whole entry): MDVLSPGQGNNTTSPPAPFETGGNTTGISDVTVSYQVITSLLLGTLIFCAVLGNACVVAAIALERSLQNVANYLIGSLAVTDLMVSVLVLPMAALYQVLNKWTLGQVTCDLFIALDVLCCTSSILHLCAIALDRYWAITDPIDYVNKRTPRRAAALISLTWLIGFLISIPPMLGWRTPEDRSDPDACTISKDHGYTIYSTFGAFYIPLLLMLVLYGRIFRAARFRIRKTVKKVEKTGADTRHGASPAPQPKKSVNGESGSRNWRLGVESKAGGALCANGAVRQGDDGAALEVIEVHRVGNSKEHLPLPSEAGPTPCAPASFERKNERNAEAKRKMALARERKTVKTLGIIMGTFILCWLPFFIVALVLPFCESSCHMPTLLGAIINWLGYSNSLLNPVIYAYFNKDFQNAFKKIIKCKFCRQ

[15] = molecular target: Protein kinase C beta type (Homo sapiens, UniProt P05771); assay: Selectivity interaction (Kinase screening (Upstate/Millipore)) EUB0000604a PRKCB
Sequence of Protein kinase C beta type (P05771 2-671 limits assumed): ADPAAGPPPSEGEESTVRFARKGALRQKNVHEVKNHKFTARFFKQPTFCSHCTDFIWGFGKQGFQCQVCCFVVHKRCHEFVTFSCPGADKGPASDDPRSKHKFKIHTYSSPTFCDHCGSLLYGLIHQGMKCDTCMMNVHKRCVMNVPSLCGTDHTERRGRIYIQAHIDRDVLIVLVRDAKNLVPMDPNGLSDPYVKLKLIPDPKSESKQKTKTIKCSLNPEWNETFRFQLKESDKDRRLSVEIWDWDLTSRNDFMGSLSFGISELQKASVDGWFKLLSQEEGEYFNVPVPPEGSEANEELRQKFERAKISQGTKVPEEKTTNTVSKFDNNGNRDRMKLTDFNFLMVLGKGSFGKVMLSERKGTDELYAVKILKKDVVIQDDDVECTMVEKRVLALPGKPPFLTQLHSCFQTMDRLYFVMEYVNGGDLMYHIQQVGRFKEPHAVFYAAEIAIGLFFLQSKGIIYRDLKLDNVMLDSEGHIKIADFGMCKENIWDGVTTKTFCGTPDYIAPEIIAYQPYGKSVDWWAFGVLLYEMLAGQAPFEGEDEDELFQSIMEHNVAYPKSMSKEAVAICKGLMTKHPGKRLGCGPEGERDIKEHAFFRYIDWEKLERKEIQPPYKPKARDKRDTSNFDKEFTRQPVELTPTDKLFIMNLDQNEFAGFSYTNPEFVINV

Sequence of Serine/threonine-protein kinase PAK 2 (Homo sapiens) (Q13177 whole entry): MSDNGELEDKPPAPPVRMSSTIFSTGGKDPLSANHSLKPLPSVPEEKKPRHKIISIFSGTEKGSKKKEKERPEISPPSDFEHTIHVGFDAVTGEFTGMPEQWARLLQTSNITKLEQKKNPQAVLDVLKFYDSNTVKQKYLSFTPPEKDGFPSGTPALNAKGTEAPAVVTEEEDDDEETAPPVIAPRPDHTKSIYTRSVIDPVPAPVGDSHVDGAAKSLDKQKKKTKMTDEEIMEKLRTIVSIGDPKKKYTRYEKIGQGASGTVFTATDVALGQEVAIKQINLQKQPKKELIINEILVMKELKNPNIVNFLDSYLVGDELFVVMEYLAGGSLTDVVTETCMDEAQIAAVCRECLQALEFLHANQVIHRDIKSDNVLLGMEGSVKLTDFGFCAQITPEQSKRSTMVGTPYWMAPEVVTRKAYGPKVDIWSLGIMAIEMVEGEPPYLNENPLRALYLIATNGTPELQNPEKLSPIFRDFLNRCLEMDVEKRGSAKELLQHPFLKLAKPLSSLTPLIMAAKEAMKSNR
Sequence of Epidermal growth factor receptor (Homo sapiens), P00533 [UNDEFINED MUTATION] (P00533 whole entry, looked up, change not shown): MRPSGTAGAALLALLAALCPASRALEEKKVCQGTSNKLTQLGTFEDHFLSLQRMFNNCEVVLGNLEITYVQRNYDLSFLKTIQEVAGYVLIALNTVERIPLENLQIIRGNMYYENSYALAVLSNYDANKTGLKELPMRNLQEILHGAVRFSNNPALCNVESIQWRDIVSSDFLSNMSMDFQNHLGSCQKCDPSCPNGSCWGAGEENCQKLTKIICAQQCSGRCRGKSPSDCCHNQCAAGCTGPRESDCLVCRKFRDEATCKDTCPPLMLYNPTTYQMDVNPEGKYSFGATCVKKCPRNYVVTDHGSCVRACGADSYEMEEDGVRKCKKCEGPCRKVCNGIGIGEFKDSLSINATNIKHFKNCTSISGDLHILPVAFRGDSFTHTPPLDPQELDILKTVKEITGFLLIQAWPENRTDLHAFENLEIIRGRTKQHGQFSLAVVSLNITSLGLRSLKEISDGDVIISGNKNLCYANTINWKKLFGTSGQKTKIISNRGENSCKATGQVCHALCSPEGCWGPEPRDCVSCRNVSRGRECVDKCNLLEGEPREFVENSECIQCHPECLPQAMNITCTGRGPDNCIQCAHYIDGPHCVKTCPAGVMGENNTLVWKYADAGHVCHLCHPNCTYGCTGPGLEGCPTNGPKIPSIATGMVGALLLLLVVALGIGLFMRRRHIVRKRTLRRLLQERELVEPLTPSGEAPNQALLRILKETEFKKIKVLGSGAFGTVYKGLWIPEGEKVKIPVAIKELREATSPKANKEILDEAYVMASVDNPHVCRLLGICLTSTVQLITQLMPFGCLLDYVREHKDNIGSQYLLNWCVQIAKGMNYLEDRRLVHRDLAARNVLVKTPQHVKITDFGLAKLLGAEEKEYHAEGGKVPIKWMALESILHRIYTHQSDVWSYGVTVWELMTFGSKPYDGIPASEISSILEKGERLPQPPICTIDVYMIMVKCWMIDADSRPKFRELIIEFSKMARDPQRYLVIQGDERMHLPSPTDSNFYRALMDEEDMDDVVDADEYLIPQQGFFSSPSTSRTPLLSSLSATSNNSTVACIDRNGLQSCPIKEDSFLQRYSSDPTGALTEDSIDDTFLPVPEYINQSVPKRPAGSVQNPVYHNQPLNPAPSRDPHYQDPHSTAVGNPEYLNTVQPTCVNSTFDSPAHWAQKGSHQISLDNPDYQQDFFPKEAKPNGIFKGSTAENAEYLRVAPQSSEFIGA
Sequence of Tyrosine-protein kinase BTK (Q06187 whole entry): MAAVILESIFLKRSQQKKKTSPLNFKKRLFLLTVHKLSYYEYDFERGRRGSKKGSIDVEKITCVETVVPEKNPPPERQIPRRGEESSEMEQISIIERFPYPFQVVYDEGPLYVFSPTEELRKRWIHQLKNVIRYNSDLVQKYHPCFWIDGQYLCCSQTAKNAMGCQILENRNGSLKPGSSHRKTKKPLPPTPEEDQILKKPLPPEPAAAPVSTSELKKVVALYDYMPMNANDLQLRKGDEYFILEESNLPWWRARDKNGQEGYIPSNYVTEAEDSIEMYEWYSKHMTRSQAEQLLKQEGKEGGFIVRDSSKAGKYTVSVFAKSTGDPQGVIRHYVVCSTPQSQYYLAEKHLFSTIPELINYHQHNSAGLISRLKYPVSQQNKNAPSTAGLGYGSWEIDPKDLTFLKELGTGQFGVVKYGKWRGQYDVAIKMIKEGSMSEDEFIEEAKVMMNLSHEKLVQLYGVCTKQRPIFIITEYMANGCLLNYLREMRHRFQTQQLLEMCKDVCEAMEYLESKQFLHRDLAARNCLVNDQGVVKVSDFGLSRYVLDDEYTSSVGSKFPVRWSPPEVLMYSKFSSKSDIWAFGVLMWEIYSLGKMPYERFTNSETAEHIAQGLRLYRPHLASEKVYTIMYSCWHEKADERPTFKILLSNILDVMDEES
Sequence of Mitogen-activated protein kinase 1 (P28482 whole entry): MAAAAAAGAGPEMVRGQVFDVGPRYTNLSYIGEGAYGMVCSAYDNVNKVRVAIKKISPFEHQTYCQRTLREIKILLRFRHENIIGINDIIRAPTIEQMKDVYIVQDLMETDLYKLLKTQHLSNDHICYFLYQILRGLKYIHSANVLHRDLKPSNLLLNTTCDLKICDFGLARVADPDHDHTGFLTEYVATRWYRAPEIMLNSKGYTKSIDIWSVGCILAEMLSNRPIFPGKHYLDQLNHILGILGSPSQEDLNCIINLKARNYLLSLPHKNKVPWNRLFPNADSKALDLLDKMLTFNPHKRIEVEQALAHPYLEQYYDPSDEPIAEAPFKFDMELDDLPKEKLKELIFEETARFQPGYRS
Sequence of Proto-oncogene tyrosine-protein kinase Src (P12931 2-536 limits assumed): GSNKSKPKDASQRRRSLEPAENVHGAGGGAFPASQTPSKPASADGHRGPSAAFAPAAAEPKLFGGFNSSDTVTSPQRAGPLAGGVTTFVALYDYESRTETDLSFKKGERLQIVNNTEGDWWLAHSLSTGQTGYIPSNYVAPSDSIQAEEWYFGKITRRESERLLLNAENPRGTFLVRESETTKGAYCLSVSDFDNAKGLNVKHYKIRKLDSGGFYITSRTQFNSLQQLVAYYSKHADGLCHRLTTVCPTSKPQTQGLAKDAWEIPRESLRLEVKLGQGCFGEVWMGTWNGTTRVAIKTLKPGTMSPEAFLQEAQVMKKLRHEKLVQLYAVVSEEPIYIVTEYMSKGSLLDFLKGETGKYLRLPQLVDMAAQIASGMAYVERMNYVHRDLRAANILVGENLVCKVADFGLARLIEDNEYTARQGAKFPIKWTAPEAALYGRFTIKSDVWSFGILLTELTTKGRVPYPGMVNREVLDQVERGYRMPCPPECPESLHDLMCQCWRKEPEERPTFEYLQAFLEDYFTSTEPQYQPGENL
Sequence of Cyclin-dependent kinase 7 (P50613 whole entry): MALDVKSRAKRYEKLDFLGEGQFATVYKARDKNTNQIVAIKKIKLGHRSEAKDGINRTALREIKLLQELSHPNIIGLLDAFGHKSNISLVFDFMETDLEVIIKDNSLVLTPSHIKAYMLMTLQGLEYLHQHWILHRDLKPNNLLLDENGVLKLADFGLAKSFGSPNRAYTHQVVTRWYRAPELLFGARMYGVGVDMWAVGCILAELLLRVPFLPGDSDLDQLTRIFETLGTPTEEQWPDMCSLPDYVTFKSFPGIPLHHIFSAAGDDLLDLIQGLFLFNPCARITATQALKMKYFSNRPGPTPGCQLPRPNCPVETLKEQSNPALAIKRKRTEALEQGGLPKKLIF

CN(C(=O)c1cnn2cccnc12)c1cc2c(cc1N1CCOCC1)C(=O)N(C[C@@H](F)C(C)(C)O)C2
dTM [1]: -1 K | dTM [2]: 1.1 K

CN1Cc2nccc(-c3cn(C)nc3-c3ccc(F)cc3)c2C1=O
% of inhibition [3]: 2%

CN(C)CCOc1ccc(-c2nc(-c3ccncc3)c(-c3ccc4c(c3)CC/C4=N\O)[nH]2)cc1
% of control [4]: 92%

Nc1cnc(N2CCc3cc(S(=O)(=O)Nc4c(F)cc(Cl)cc4F)cc(N4CCCC4=O)c32)nc1 [TP-020n]
% of control [5]: 84%

O[C@H]1CC[C@H](Nc2ncc3nc(Nc4c(F)cc(F)cc4F)n([C@H]4CCOC4)c3n2)CC1
% of control [6]: 72%

N#Cc1cccc(-c2c[nH]c3ncnc(N4CCOCC4)c23)c1
% of control [7]: 83%

C=CC(=O)Nc1cc(-n2c(=O)ccc3cnc4ccc(-c5ccc(NS(C)(=O)=O)cc5)cc4c32)ccc1C
% of control ([8]; at 1 µM): 68% | % of control ([8]; at 10 µM): 100%

C=CC(=O)Nc1ccc(C(=O)Nc2[nH]nc3c2CN(C(=O)N[C@H](CN(C)C)c2ccccc2)C3(C)C)cc1
% of engagement ([9]; Selectivity number of off-targets 0.0, Selectivity number of targets 233.0, Source Knowledge https://www.sciencedirect.com/science/article/pii/S2451945619300674?via%3Dihub): -25.3% | % of engagement [9]: -16.4%

Cc1cc([C@@H](C)Nc2ccccc2C(=O)O)c2nc(N3CCOCC3)cc(=O)n2c1 [AZD-6482]
% of control [10]: 97%

CC[C@@H]1[C@H](F)C(=O)N[C@@H]1COc1nccc2cc(C(N)=O)c(OC)cc12 [ZIMLOVISERTIB]
% of inhibition [11]: -1.2%

COc1cc(N(C)c2ccnc3ccc(C(F)(F)F)cc23)cc(OC)c1OC
% binding [12]: 80%

C=CC(=O)Nc1cccc(C(=O)Nc2ccc(Nc3cc(-c4[nH]c(SC)nc4C)ccn3)cc2)c1
% of control ([13]; at 1 µM): 99% | % of control ([13]; at 5 µM): 86%

CN(C)C(=O)Cn1cc(-c2ccc(-c3cncc4ccccc34)cc2)cn1
% of control [14]: 50%

Cc1cnc(Nc2ccc(F)cc2Cl)nc1-c1c[nH]c(C(=O)N[C@H](CO)c2cccc(Cl)c2)c1
% of inhibition [15]: 4%
